From patent US20090042993A1, “IDENTIFICATION OF NOVEL POST-TRANSLATIONAL PROTEIN MODIFICATIONS” (priority 2007, published 2009) come the findings set out here.

For experiment [1], the system named is acetyl-CoA:lysine acetyltransferase activity in ER vesicles. Briefly: Membrane acetyltransferase activity, in vitro acetylation of BACE1-myc by ER vesicles. Type of experiment: biochemical, Chinese Hamster. The conditions noted are these: vesicles from control or ceramide-treated cells, 0.2% Triton X-100, 30° C. From the text:
(§1) Intact vesicles from the endoplasmic reticulum (ER) and the Golgi apparatus were purified on a 10-34% Iodixanol (OptiPrep; Axis-Shield, Norway) continuous gradient as described (Puglielli et al., 2001, Nat. Cell Biol. 3: 905-912). The complete migration of subcellular markers in a typical gradient is shown in Costantini et al., 2006, EMBO J. 25: 1997-2006; Puglielli et al., 2001, Nat. Cell Biol. 3: 905-912. Fractions enriched in ER and Golgi markers (also called ER or Golgi vesicles herein) were separated, pooled together, and resuspended in isotonic/cryogenic buffer (0.25 M sucrose and 10 mM Tris-HCl, pH 7.4) in the presence of protease inhibitors (Roche). Latency of ER and Golgi vesicles was determined with the glucose-6-phosphatase (Clairmont et al., 1992, J. Biol. Chem. 267: 3983-3900) and the sialyl-transferase (Puglielli and Hirschberg, 1999, J. Biol. Chem. 274: 35596-35600) methods, respectively. […]
The reaction was stopped by adding 200 μl of ice-cold buffer and immediate immersion in ice; BACE1 was then immunoprecipitated and counted on a liquid scintillation counter. […]
(§2) FIG. 6 illustrates how acetyltransferase and deacetylase activities exist in the lumen of ER and Golgi apparatus, respectively. […] The reaction was stopped by lowering the temperature; BACE1 was then purified again and analyzed on a scintillation liquid counter. […]

In experiment [2] the test system is ER membrane ATP transport. Description: ATP transport into intact ER vesicles. The class given is biochemical, Chinese Hamster. As to conditions: vesicles from control and ceramide-treated cells, 5 and 10 μM solute.
Source text: as §1, with “respectively. The purity of the preparation was further confirmed by assaying the above enzymatic activities, together with transport of CMP-sialic acid.” for “respectively.”
Briefly, assays were performed in 100 μl final volume (isotonic/cryogenic buffer) using 25 to 50 μg of ER/Golgi vesicles protein. […] Pellets were then dissolved in 0.6 mL of NaOH 1 N; after neutralization with 0.2 mL of 4N HCl, samples were counted by scintillation spectrometry. […]

For experiment [3], the system named is AT-1. Briefly: AT-1 mRNA by real-time quantitative PCR in SH-SY5Y cells. The class given is cell-based, human. As to conditions: C6-cer 10 μM. On the procedure: FIG. 15(A): SH-SY5Y cells were treated with ceramide (C6-cer; 10 μM) prior to real-time quantitative PCR. Treatment was performed as previously described (Costantini et al., 2007; Costantini et al., 2005; Puglielli et al., 2003). Results are expressed as percent of control (n=5)±S.D. of control (no treatment). Asterisk (*) indicates statistical significance. […] FIG. 15(B): a cDNA library (frontal cortex) of late-onset AD (n=5 different subjects) and age-matched controls (n=5 different subjects) was analyzed by quantitative real-time PCR. Results are expressed as percent of age-matched controls±S.D. Asterisk (*) indicates statistical significance.

For experiment [4], the system named is lysine deacetylase activity in Golgi vesicles. Briefly: Membrane deacetylase activity, in vitro deacetylation of acetylated BACE1-myc by Golgi vesicles. The class given is biochemical, Chinese Hamster. The conditions noted are these: vesicles from ceramide-treated cells, 0.2% Triton X-100, 30° C.
Source text: as §1
BACE1 was eluted by lowering the pH to 2.0 and recovered by centrifuging at 3000 rpm for 2 min. […] BACE1 was then immunoprecipitated and counted on a liquid scintillation counter. […]
as §2

As for `CCCCCCCCCCCCC/C=C/[C@@H](O)[C@H](CO)NC(=O)CCCCC` [ceramide, C6-ceramide], the “in vitro acetylation of BACE1 by ER membrane vesicles” value in experiment [1] is “no apparent difference”. For the same compound, the “ATP transport into ER vesicles” value in experiment [2] is “no apparent difference”. Also, the “AT-1 mRNA level” value in experiment [3] is “upregulated”. In addition, in experiment [4], the “in vitro deacetylation of BACE1 by Golgi vesicles” value was “increased deacetylation”.
